{"source": "patent US7118895B2", "about": "“Process for producing aglycon by using diglycosidase and flavor-improved food containing the aglycon and converting agent to be used in the process” (Amano Enzyme Inc., priority 2000, dated 2006)", "system": "Crude diglycosidase", "test": "Examination of temperature in the conversion into isoflavone aglycons by diglycosidase using soybean materials", "assay_type": "biochemical, Penicillium multicolor IAM7153", "conditions": "for maximum isolation of aglycons: reaction at 55° C. for 6 hours", "procedure,_shortened": "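Soybean materials (50 mg) suspended in 20 mM acetate buffer pH 4.0 reacted with crude diglycosidase diluted to 1.88 AU/mL at 80, 65, 55, 45, 37 or 30° C. Reactions stopped with ethanol at 0, 1, 3 and 6 h; isoflavone glycosides and aglycons in supernatant detected by HPLC.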"}
{"smiles": "O=c1c(-c2ccc(O)cc2)coc2cc(O)cc(O)c12", "note": "[genistein]", "values": [{"measurement": "Decomposition efficiency of genistin family in defatted soybean", "setting": "30° C., heat treatment of enzyme no, reaction time 1 h", "value": 47.4, "unit": "%"}, {"measurement": "Decomposition efficiency of genistin family in defatted soybean", "setting": "30° C., heat treatment of enzyme no, reaction time 3 h", "value": 50.2, "unit": "%"}, {"measurement": "Decomposition efficiency of genistin family in defatted soybean", "setting": "30° C., heat treatment of enzyme no, reaction time 6 h", "value": 46.6, "unit": "%"}, {"measurement": "Decomposition efficiency of genistin family in defatted soybean", "setting": "30° C., heat treatment of enzyme yes, reaction time 6 h", "value": 50.2, "unit": "%"}, {"measurement": "Decomposition efficiency of genistin family in defatted soybean", "setting": "45° C., heat treatment of enzyme no, reaction time 0 h", "value": 14.5, "unit": "%"}, {"measurement": "Decomposition efficiency of genistin family in defatted soybean", "setting": "45° C., heat treatment of enzyme no, reaction time 1 h", "value": 49.2, "unit": "%"}, {"measurement": "Decomposition efficiency of genistin family in defatted soybean", "setting": "45° C., heat treatment of enzyme no, reaction time 3 h", "value": 51.8, "unit": "%"}, {"measurement": "Decomposition efficiency of genistin family in defatted soybean", "setting": "45° C., heat treatment of enzyme no, reaction time 6 h", "value": 54.6, "unit": "%"}, {"measurement": "Decomposition efficiency of genistin family in defatted soybean", "setting": "45° C., heat treatment of enzyme yes, reaction time 6 h", "value": 50.4, "unit": "%"}, {"measurement": "Decomposition efficiency of genistin family in defatted soybean", "setting": "55° C., heat treatment of enzyme no, reaction time 1 h", "value": 50.5, "unit": "%"}, {"measurement": "Decomposition efficiency of genistin family in defatted soybean", "setting": "55° C., heat treatment of enzyme no, reaction time 3 h", "value": 53.7, "unit": "%"}, {"measurement": "Decomposition efficiency of genistin family in defatted soybean", "setting": "55° C., heat treatment of enzyme no, reaction time 6 h", "value": 56.5, "unit": "%"}, {"measurement": "Decomposition efficiency of genistin family in defatted soybean", "setting": "55° C., heat treatment of enzyme yes, reaction time 6 h", "value": 51.9, "unit": "%"}, {"measurement": "Decomposition efficiency of genistin family in defatted soybean", "setting": "65° C., heat treatment of enzyme no, reaction time 0 h", "value": 14.5, "unit": "%"}, {"measurement": "Decomposition efficiency of genistin family in defatted soybean", "setting": "65° C., heat treatment of enzyme no, reaction time 1 h", "value": 49.9, "unit": "%"}, {"measurement": "Decomposition efficiency of genistin family in defatted soybean", "setting": "65° C., heat treatment of enzyme no, reaction time 3 h", "value": 51.8, "unit": "%"}, {"measurement": "Decomposition efficiency of genistin family in defatted soybean", "setting": "65° C., heat treatment of enzyme no, reaction time 6 h", "value": 54.5, "unit": "%"}, {"measurement": "Decomposition efficiency of genistin family in defatted soybean", "setting": "65° C., heat treatment of enzyme yes, reaction time 6 h", "value": 30.7, "unit": "%"}, {"measurement": "Decomposition efficiency of genistin family in defatted soybean", "setting": "80° C., heat treatment of enzyme no, reaction time 0 h", "value": 14.5, "unit": "%"}, {"measurement": "Decomposition efficiency of genistin family in defatted soybean", "setting": "80° C., heat treatment of enzyme no, reaction time 1 h", "value": 44.9, "unit": "%"}, {"measurement": "Decomposition efficiency of genistin family in defatted soybean", "setting": "80° C., heat treatment of enzyme no, reaction time 3 h", "value": 43.3, "unit": "%"}, {"measurement": "Decomposition efficiency of genistin family in defatted soybean", "setting": "80° C., heat treatment of enzyme no, reaction time 6 h", "value": 41.3, "unit": "%"}, {"measurement": "Decomposition efficiency of genistin family in defatted soybean", "setting": "80° C., heat treatment of enzyme yes, reaction time 6 h", "value": 19.6, "unit": "%"}, {"measurement": "maximum isolation of aglycons", "setting": "concentrated soybean protein", "value": "about 61%"}, {"measurement": "maximum isolation of aglycons", "setting": "defatted soybean", "value": "about 57%"}, {"measurement": "maximum isolation of aglycons", "setting": "soy flour", "value": "about 74%"}, {"measurement": "maximum isolation of aglycons", "setting": "soymilk", "value": "about 80%"}]}
